Measurements as given in patent publication EP1285920A1, “C10 Ester sustituted taxanes as antitumor agents” (Florida State University Research Foundation, Inc., priority 2001, dated 2003).
Where two headings read alike, the source gives them in different places.

Columns and labels:
HCT116 = experiment: In Vitro cytotoxicity measured by the cell colony formation assay; assay type: cell-based, human; details: Homo sapiens, HCT-116; read-out: IN VITRO ID 50 HCT116
How it was run: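 Four hundred cells per dish in McCoy's 5a medium with 10% FBS were allowed to attach for 5 h at 37 °C. They were then exposed to compound for 72 h at 37 °C, added as a 10× stock made fresh in medium. After HBSS rinsing and refeeding, colonies were counted after 7 days.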

HCT116 carcinoma = details: for Partial Response / Complete Response / Mean Score / Stable Disease: iv; for Complete Response / Mean Score / Stable Disease: 1440 h; for Survivors / Toxic Deaths: number of 5 mice, i.v. qd x 1 at MTD, Day 60; for Survivors: doses as in E3; for Toxic Deaths: mg/kg: Taxol 36 (split doses), 0503 72.6, 0536 49, 0663 159, 0670 123, 0687 159, 0706 108, 0908 159, 0947 76.9, 0951 72.6, 0983 72.6, 0999 49, 1003 49, 1011 108
How it was run: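 Mice bearing HCT116 tumours received a single i.v. maximum tolerated dose per compound, formulated in 5% ethanol, 5% Cremophor, 90% isotonic saline. Study ended on Day 60; complete response meant no palpable tumour at study end.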

MX-1 carcinoma = details: for Partial Response / Complete Response / Mean Score / Stable Disease: iv; for Complete Response / Mean Score / Stable Disease: 1440 h; for Survivors / Toxic Deaths: number of 6 mice, i.v. qd x 1 at MTD, Day 60; for Survivors: doses as in E17; for Toxic Deaths: mg/kg: Taxol 36 (split dose), 0503 72.6, 0536 49, 0663 159, 0670 123, 0687 159, 0706 108, 0908 159, 0947 76.9, 0951 72.6, 0983 67.4, 0999 49, 1003 49, 1011 108
How it was run: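 Mice dosed with a single i.v. bolus (qd x 1) at each compound's MTD, formulated in 5% ethanol, 5% Cremophor, 90% isotonic saline. Study ended Day 60; complete response = tumor not palpable at study end.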

DU145 prostate carcinoma = details: for Toxic Deaths / Survivors: number of 5 mice, Day 91; for Toxic Deaths: i.v. qd x 1 at estimated MTD (Taxol 24 mg/kg as two split doses); for Survivors: i.v. qd x 1 at estimated MTD (Taxol 24 mg/kg split)
Text: Dosing was initiated on Day 1. […] Treatment groups are detailed in Table 5.

A2780 ovarian carcinoma = tested on: A2780 ovarian carcinoma
Procedure: Dosing was initiated on Day 1. […] Taxotere was given i.v. on a qd x 1 schedule at a dose of 70 mg/kg. […] The study was terminated on Day 60. Treatment groups are detailed in Table 7.

A375 melanoma = details: for Toxic Deaths / Survivors: number of mice, i.v. qd x 1 at estimated MTD (Taxol 24 mg/kg, Taxotere 70 mg/kg), 6 mice/group (Taxotere 7); for Survivors: Day 60; for mean group weight losses: A375, i.v. qd x 1
Procedure: Dosing was initiated on Day 1. […] Taxotere was given i.v. on a qd x 1 schedule at a dose of 70 mg/kg. […] The study was terminated on Day 60. Treatment groups are detailed in Table 9.

VM46 colon carcinoma = details: for response rate: VM46, i.v. qd x 1 at estimated MTD; for Toxic Deaths / Complete Response / Partial Response / Stable Disease / Survivors: number of mice; for Complete Response / Partial Response / Stable Disease / Survivors: Day 64
Procedure: Dosing was initiated on Day 1. […] Taxotere was given i.v. at a dose of 70 mg/kg on a qd x 1 schedule.

[1] = tested on: Panc-1 pancreatic carcinoma; experiment: In vivo evaluation against Panc-1 human pancreatic carcinoma (Example 17); details: for Toxic Deaths / Complete Response / Partial Response / Stable Disease / Mean Score: i.v. qd x 1; for Complete Response / Partial Response / Stable Disease: Day 60; for Mean Score: tumor scoring system
[2] = tested on: Panc-1 pancreatic carcinoma; details: for Mean Score: iv
Procedure: The dosing volume was 0.3 ml per 20 g mouse.
Female NCr-nude mice were implanted subcutaneously with 1 mm^3 Panc-1 pancreatic carcinoma fragments in the flank and sorted into treatment groups of six mice each. […] Dosing was initiated on Day 1. The antitumor compounds were given i.v. at an estimated maximum tolerated dose (MTD) appropriate for each agent on a qd x 1 schedule (single administration of compound). […] The vehicle was administered i.v. to control mice in Group 1 on the qd x 1 schedule.
The mean days of survival is the number of days after which a neoplasm reached a size of 1.5 g and the animal was euthanized. A complete response is obtained if the tumor shrinks to a size smaller than its size on Day 1 of the study.

[3] = i.v. qd x 1, mg/kg: Taxol 24, 0499 77, 0503 72.6, 0670 123.1, 0706 107.6, 0838 72.6, 0854 46.6, 0983 67.4, Taxotere 70, 6 mice/group
[4] = number of mice, mg/kg: Taxol 36, 0499 77, 0503 72.6, 0670 123.1, 0706 107.6, 0838 72.6, 0854 76.9, 6 mice/group
[5] = mg/kg: Taxol 36, 0499 77, 0503 72.6, 0670 123.1, 0706 107.6, 0838 72.6, 0854 76.9, 6 mice/group
[6] = number of mice, i.v. qd x 1, mg/kg: Taxol 24, 0854 46.6, 1011 107.6, 6 mice/group
[7] = number of mice, i.v. qd x 1, mg/kg: Taxol 24, 0854 46.6, 1011 107.6, 6 mice/group, Day 63
[8] = A2780, i.v. qd x 1, five mice per group
[9] = Panc-1 (Example 18), i.v. qd x 1, six mice per group

CCC(=O)O[C@H]1C(=O)[C@@]2(C)[C@H]([C@H](OC(=O)c3ccccc3)[C@]3(O)C[C@H](OC(=O)[C@H](O)[C@@H](NC(=O)c4ccccc4)C4CC4)C(C)=C1C3(C)C)[C@]1(OC(C)=O)CO[C@@H]1C[C@@H]2O [Compound 0706]
IC50 (HCT116): < 1 nM | Partial Response (HCT116 carcinoma): 4 | Complete Response (HCT116 carcinoma): 1 | Mean Score (HCT116 carcinoma): 9.2 ± 0.2 | Stable Disease (HCT116 carcinoma): 0 | Survivors (HCT116 carcinoma): 5 | Toxic Deaths (HCT116 carcinoma): 0 | Partial Response (MX-1 carcinoma): 0 | Complete Response (MX-1 carcinoma): 5 | Mean Score (MX-1 carcinoma): 8.3 ± 1.7 | Stable Disease (MX-1 carcinoma): 0 | Survivors (MX-1 carcinoma): 5 | Toxic Deaths (MX-1 carcinoma): 1 | complete responses (DU145 prostate carcinoma; DU145, i.v. qd x 1, five mice per group): 2 | total response rate (DU145 prostate carcinoma; iv): 20-50% | Toxic Deaths (DU145 prostate carcinoma): 0 | Survivors (DU145 prostate carcinoma): 3 | Mean Score (A2780 ovarian carcinoma; iv, 72.6 mg/kg): 3 ± 0 | Complete Response (A2780 ovarian carcinoma; iv, 72.6 mg/kg, 1440 h): 0 | MDS (n) (A2780 ovarian carcinoma; iv, 72.6 mg/kg, 1440 h): 37.0 ± 4.1 (5) days | Partial Respons (A2780 ovarian carcinoma; iv, 72.6 mg/kg, 1440 h): 0 | Stable Disease (A2780 ovarian carcinoma; iv, 72.6 mg/kg, 1440 h): 0 | Toxic Deaths (A2780 ovarian carcinoma; number of mice, i.v. qd x 1 at estimated MTD (Taxol 24 mg/kg, Taxotere 70 mg/kg, 0983 72.6 mg/kg), 5 mice/group (Taxotere 6)): 0 | Survivors (A2780 ovarian carcinoma; number of mice, i.v. qd x 1 at estimated MTD (Taxol 24 mg/kg, Taxotere 70 mg/kg, 0983 72.6 mg/kg), 5 mice/group (Taxotere 6), Day 60): 0 | Toxic Deaths (A375 melanoma): 1 | Survivors (A375 melanoma): 0 | response rate (VM46 colon carcinoma): 56% | MDS (n) (VM46 colon carcinoma; mean days of survival until neoplasm reached 1.5 g, i.v. qd x 1, mg/kg: Taxol 24, 0499 77, 0503 72.6, 0670 123.1, 0706 107.6, 0838 72.6, 0854 46.6, 0983 67.4, Taxotere 70, 6 mice/group, terminated Day 64): 48.6 ± 0.9 (3) days | Toxic Deaths (VM46 colon carcinoma; [3]): 0 | Complete Response (VM46 colon carcinoma; [3]): 1 | Partial Response (VM46 colon carcinoma; [3]): 2 | Stable Disease (VM46 colon carcinoma; [3]): 0 | Survivors (VM46 colon carcinoma; [3]): 3 | Mean Score (VM46 colon carcinoma; tumor scoring system, i.v. qd x 1, mg/kg: Taxol 24, 0499 77, 0503 72.6, 0670 123.1, 0706 107.6, 0838 72.6, 0854 46.6, 0983 67.4, Taxotere 70, 6 mice/group): 6.2 ± 1.4 | MDS ([1]; Panc-1 (Example 17), i.v. qd x 1 (compounds estimated MTD; Taxol 36 mg/kg split), days until tumor 1.5 g, ended Day 60): 47 to 56 days | Toxic Deaths [1, 4]: 0 | Complete Response [1, 4]: 0 | Partial Response [1, 4]: 3 | Stable Disease [1, 4]: 2 | Mean Score [1, 5]: 6.6 ± 1

CC(=O)O[C@@]12CO[C@@H]1C[C@H](O)[C@@]1(C)C(=O)[C@H](OC(=O)C3CC3)C3=C(C)[C@@H](OC(=O)[C@H](O)[C@@H](NC(=O)OC(C)(C)C)c4cccs4)C[C@@](O)([C@@H](OC(=O)c4ccccc4)[C@H]21)C3(C)C [Compound 0854]
IC50 (HCT116): < 1 nM | Toxic Deaths (DU145 prostate carcinoma): 5 | Survivors (DU145 prostate carcinoma): 0 | mean group weight losses (A375 melanoma): 20 - 30% | Toxic Deaths (A375 melanoma): 6 | Survivors (A375 melanoma): 0 | response rate (VM46 colon carcinoma): 16.7-40% | Mean Score (VM46 colon carcinoma; iv): 4.7 ± 1.6 | MDS (n) (VM46 colon carcinoma; iv, 1536 h): 52.9 ± 6.6 (2) days | maximal mean weight loss (VM46 colon carcinoma; mouse, in vivo, iv): under 12% | Toxic Deaths (VM46 colon carcinoma; [3]): 1 | Complete Response (VM46 colon carcinoma; [3]): 0 | Partial Response (VM46 colon carcinoma; [3]): 2 | Stable Disease (VM46 colon carcinoma; [3]): 1 | Survivors (VM46 colon carcinoma; [3]): 3 | Mean Score [2]: 0 ± 0 | Toxic Deaths [2, 6]: 6 | Complete Response [2, 7]: 0 | Partial Response [2, 7]: 0 | Stable Disease [2, 7]: 0 | Toxic Deaths ([1]; Panc-1 (Example 17), six mice per group): six | Toxic Deaths [1, 4]: 6 | Complete Response [1, 4]: 0 | Partial Response [1, 4]: 2 | Stable Disease [1, 4]: 0 | Mean Score [1, 5]: 0 ± 0

CCCC(=O)O[C@H]1C(=O)[C@@]2(C)[C@H]([C@H](OC(=O)c3ccccc3)[C@]3(O)C[C@H](OC(=O)[C@H](O)[C@@H](NC(=O)OC(C)(C)C)c4ccsc4)C(C)=C1C3(C)C)[C@]1(OC(C)=O)CO[C@@H]1C[C@@H]2O [Compound 1011]
IC50 (HCT116): < 1 nM | Partial Response (HCT116 carcinoma): 2 | Complete Response (HCT116 carcinoma): 3 | Mean Score (HCT116 carcinoma): 9.6 ± 0.2 | Stable Disease (HCT116 carcinoma): 0 | Survivors (HCT116 carcinoma): 5 | Toxic Deaths (HCT116 carcinoma): 0 | Partial Response (MX-1 carcinoma): 0 | Complete Response (MX-1 carcinoma): 6 | Mean Score (MX-1 carcinoma): 10 ± 0 | Stable Disease (MX-1 carcinoma): 0 | Survivors (MX-1 carcinoma): 6 | Toxic Deaths (MX-1 carcinoma): 0 | mortality rate (DU145 prostate carcinoma; DU145, i.v. qd x 1 at the administered dose, five animals): ≥ 40% | Toxic Deaths (DU145 prostate carcinoma): 3 | Survivors (DU145 prostate carcinoma): 0 | maximal mean group weight loss (A2780 ovarian carcinoma; A2780, i.v. qd x 1, Day 5): 11.3% | Complete Response (A2780 ovarian carcinoma; [8]): 1 | Toxic Deaths (A2780 ovarian carcinoma; [8]): no toxic deaths | partial responses (A2780 ovarian carcinoma; [8]): 3 | tolerability / toxicity (A2780 ovarian carcinoma; mouse, in vivo, iv): well-tolerated | mean group weight losses (A375 melanoma): 20 - 30% | Toxic Deaths (A375 melanoma): 3 | Survivors (A375 melanoma): 0 | partial responses [2, 9]: three | toxic deaths / toxic lethalities [2, 9]: three | overall response rate ([2]; Panc-1 (Example 18), i.v. qd x 1 at estimated MTD): 100% | Mean Score [2]: 4 ± 1.8 | Toxic Deaths [2, 6]: 3 | Complete Response [2, 7]: 0 | Partial Response [2, 7]: 3 | Stable Disease [2, 7]: 0 | Survivors [2, 7]: 3
